Drawing on ChEMBL document CHEMBL4354874, “Insights into PPARγ Phosphorylation and Its Inhibition Mechanism” (J Med Chem, 2020), this text covers inhibition for one molecule.

This assay addresses Cyclin-dependent kinase 5 (Homo sapiens) (UniProt Q00535). In words: Inhibition of CDK5 (unknown origin) assessed as reduction in histone H1 phosphorylation.

Activity calls are given as the source filed them. The rule behind the calls is not given here.

Sequence of Cyclin-dependent kinase 5 (Homo sapiens) (Q00535 whole entry, looked up): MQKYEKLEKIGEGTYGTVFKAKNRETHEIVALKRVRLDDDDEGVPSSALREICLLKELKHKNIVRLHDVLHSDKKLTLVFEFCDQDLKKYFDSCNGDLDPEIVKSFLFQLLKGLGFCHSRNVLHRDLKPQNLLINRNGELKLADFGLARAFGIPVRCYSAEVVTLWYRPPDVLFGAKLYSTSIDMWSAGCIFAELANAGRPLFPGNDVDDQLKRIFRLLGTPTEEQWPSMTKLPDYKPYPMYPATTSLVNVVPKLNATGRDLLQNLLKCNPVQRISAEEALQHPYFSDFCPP

For the molecule `O=C(O)[C@H](Cc1ccccc1)Oc1ccc(-c2ccccc2)cc1`, the inhibition result is “inactive”.
